Reference: patent EP3293246A1, “LUBRICANT COMPOSITIONS CONTAINING DIUREA COMPOUNDS” (BASF SE, priority 2016, dated 2018)

Assay: Solubility 0.5% in base oil Yubase 4, visual inspection of appearance
Assay type: physicochemical
Conditions: 0.5 g compound stirred with 99.5 g Yubase 4 at 100°C for 4 hours, cooled to room temperature
Method: For the determination of the solubilities, 0.5 g of the compound under test was stirred with 99.5 g of Yubase 4 at 100°C for 4 hours and subsequently cooled to room temperature. The appearance of the solution was assessed by visual inspection.

Solubility 0.5% in Yubase 4; visible appearance	Compound
no clear solution	CCCCC(CC)CNC(=O)Nc1ccc(C)c(NC(=O)NCC(CC)CCCC)c1 (stereo not drawn) [Example 1]
no clear solution	Cc1ccc(NC(=O)NC(C)CCCC(C)C)cc1NC(=O)NC(C)CCCC(C)C (stereo not drawn) [Example 6]
no clear solution	CCCCCCCCC=CCCCCCCCCNC(=O)Nc1ccc(C)c(NC(=O)NCCCCCCCCC=CCCCCCCCC)c1 [Example 5]
